Data reported in patent publication US12540137B2, “N-1 branched alkyl ether substituted imidazo[4,5-c]quinoline compounds, compositions, and methods” (Solventum Intellectual Properties Company, priority 2018, dated 2026).

What was measured:
human TLR7 = biological target: T1, human TLR7 (Homo sapiens, UniProt Q9NYK1); assay: TLR activation, HEK-BLUE-hTLR7 SEAP reporter cells; type: cell-based; details: 16-20 hours, SEAP response at least 2× vehicle control, tested 0.01-30 micromolar
T1 construct: host or cells: HEK293 (HEK-BLUE-hTLR7)
T1 sequence (Q9NYK1 27-1049): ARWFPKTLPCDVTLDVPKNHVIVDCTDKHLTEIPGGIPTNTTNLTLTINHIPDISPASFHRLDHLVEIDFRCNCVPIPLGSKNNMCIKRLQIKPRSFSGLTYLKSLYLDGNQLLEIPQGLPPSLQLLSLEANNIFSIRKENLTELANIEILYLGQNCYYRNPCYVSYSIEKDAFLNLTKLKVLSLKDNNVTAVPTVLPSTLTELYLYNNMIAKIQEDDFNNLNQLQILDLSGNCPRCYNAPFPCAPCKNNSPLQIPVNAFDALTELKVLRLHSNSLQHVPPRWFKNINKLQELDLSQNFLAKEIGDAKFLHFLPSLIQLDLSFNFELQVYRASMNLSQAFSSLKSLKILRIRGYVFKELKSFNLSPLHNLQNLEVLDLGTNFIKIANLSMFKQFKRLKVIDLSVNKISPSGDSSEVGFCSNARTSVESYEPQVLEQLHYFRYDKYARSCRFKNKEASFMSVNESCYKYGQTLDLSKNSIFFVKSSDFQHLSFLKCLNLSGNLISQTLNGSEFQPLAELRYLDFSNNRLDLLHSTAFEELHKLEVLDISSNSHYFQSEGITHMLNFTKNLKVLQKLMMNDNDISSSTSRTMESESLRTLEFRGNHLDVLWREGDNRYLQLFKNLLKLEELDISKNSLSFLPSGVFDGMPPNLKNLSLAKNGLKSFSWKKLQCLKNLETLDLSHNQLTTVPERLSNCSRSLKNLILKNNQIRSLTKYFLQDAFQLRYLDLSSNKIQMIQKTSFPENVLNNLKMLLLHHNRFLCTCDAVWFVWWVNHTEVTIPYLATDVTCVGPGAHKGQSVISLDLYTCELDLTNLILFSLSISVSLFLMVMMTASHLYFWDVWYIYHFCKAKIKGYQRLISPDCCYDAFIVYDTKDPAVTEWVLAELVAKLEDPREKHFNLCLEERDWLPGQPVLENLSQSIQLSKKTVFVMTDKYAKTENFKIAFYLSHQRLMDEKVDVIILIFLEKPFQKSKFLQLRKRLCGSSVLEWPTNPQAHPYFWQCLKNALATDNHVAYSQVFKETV
Experimental: (§1) HEK-BLUE-hTLR7 or hTLR8 reporter cells were obtained from InvivoGen, San Diego, CA. According to the manufacturer's description, these reporter cells were prepared by co-transfection of HEK293 cells with an inducible secreted embryonic alkaline phosphatase (SEAP) reporter gene and either the human TLR7 or TLR8 gene. The SEAP reporter gene was placed under the control of an IFN−β minimal promoter fused to five NF-κB and AP-1-binding sites. In the presence of a TLR ligand, activation of NF-κB and AP-1 occurs, resulting in a corresponding increase in SEAP levels.
(§2) In the assay, the HEK cells were grown and maintained using standard cell culture techniques in a growth medium that contained Dulbecco's Modified Eagle Medium (ThermoFisher Scientific Incorporated, Waltham, MA) supplemented with 1% penicillin/streptomycin and 10% heat-inactivated Gibco fetal bovine serum (ThermoFisher Scientific). Each compound was solubilized in DMSO to create a 3 mM stock solution. The stock solution was then further diluted with the growth medium to prepare serial dilutions. Each test compound was tested at a concentration of 30, 10, 3.3, 1.1, 0.37, 0.12, 0.04, and 0.01 micromolar using a 96-well format with 5×10^4 cells and 200 microliters of growth medium per well.
(§3) For each compound, hTLR7, hTLR8, and their respective null control HEK cells were screened. DMSO serially diluted into the growth medium served as the vehicle control. Cell culture supernatants containing the SEAP reporter were collected after an incubation period of 16-20 hours in a cell culture incubator (37° C. and 5% CO2), and either analyzed immediately or stored at −80° C. SEAP levels were measured using the colorimetric enzyme assay (QUANTI-BLUE (InvivoGen) according to manufacturer's instructions.
(§4) Specifically, the minimum effective concentration of each compound (micromolar) was determined as the lowest concentration of the compound that produced a SEAP expression response at least 2× greater than that observed with the vehicle control wells.

human TLR8 = biological target: T2, human TLR8 (Homo sapiens, UniProt Q9NR97); assay: TLR activation, HEK-BLUE-hTLR8 SEAP reporter cells; type: cell-based; details: 16-20 hours, SEAP response at least 2× vehicle control, tested 0.01-30 micromolar
T2 construct: host or cells: HEK293 (HEK-BLUE-hTLR8)
T2 sequence (Q9NR97 27-1041): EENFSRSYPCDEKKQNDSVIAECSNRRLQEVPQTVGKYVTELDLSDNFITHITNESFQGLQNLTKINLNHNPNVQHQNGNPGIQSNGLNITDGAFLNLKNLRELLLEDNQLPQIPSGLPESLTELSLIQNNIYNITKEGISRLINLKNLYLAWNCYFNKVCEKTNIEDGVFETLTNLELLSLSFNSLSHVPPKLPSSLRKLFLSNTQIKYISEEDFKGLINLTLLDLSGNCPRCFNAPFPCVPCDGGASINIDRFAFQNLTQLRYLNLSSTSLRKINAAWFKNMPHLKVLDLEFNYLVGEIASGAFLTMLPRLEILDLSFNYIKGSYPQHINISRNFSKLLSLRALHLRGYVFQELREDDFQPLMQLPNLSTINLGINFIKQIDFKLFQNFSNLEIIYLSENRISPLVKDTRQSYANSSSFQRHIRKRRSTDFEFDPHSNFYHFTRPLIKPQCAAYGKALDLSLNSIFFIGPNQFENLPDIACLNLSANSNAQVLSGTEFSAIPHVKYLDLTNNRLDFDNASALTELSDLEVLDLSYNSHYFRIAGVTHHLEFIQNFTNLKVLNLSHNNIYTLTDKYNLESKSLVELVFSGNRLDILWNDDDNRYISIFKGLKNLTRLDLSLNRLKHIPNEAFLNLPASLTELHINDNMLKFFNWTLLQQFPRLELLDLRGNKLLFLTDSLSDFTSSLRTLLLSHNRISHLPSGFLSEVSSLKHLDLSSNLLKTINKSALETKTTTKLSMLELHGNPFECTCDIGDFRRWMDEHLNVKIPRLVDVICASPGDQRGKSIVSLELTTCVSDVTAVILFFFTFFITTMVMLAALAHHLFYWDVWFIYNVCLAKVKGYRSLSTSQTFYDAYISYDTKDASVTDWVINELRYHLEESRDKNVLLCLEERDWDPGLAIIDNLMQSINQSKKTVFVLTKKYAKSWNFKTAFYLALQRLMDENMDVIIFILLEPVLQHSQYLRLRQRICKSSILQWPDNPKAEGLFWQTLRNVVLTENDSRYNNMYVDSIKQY
Experimental: as §1, §2, §3, §4

Structure (SMILES): CCOC[C@@H](n1cnc2c(N)nc3ccccc3c21)C1(O)CCCC1 [Example 14, 1-[(1R)-1-(4-aminoimidazo[4,5-c]quinolin-1-yl)-2-ethoxy-ethyl]cyclopentanol]
- MEC to Produce TLR Activation TLR 7 (human TLR7): 0.04 µM
- MEC to Produce TLR Activation TLR 8 (human TLR8): 30 µM
